Experimental data published in the supplement of paper PMC9663587.

What was measured:
[1] = compound: CC(=O)Nc1cccc(-n2c(=O)n(C3CC3)c(=O)c3c(Nc4ccc(I)cc4F)n(C)c(=O)c(C)c32)c1
Ipatasertib/GDC0068 = compound: CC(C)NC[C@@H](C(=O)N1CCN(c2ncnc3c2[C@H](C)C[C@H]3O)CC1)c1ccc(Cl)cc1 [Ipatasertib/GDC0068]
[2] = compound: CCC1=CN=CN=C1N2CCN(CC2)CC3=NC4=C(N3)C=C(C=C4)C(F)(F)F
[3] = compound: CCN1CCN(Cc2ccc(Nc3ncc(F)c(-c4cc(F)c5nc(C)n(C(C)C)c5c4)n3)nc2)CC1
BSJ-01-175 = compound: CN(C)C/C=C/C(=O)Nc1ccc(O[C@@H]2CCC[C@@H](Nc3ncc(Cl)c(-c4c[nH]c5ccccc45)n3)C2)cc1 [BSJ-01-175]
AZD2014 = compound: CNC(=O)c1cccc(-c2ccc3c(N4CCOC[C@@H]4C)nc(N4CCOC[C@@H]4C)nc3n2)c1 [AZD2014]
[4] = compound: COc1ccc2c(c1)[C@]1(C[C@H]1c1ccc3c(/C=C/c4ccc(CN5C[C@@H](C)O[C@@H](C)C5)cc4)n[nH]c3c1)C(=O)N2
AZD6738 = compound: C[C@@H]1COCCN1c1cc(C2([S@](C)(=N)=O)CC2)nc(-c2cc[nH]c3nccc2-3)n1 [AZD6738]
AZD7762 = compound: NC(=O)Nc1cc(-c2cccc(F)c2)sc1C(=O)N[C@H]1CCCNC1 [AZD7762]
Vorinostat = compound: O=C(CCCCCCC(=O)Nc1ccccc1)NO [Vorinostat]
Tivantinib/ARQ197 = compound: O=C1NC(=O)[C@@H](c2cn3c4c(cccc24)CCC3)[C@@H]1c1c[nH]c2ccccc12 [Tivantinib/ARQ197]
BSJ-03-123 = compound: CC(=O)c1c(C)c2cnc(Nc3ccc(N4CCN(CCOCCOCCOCCNC(=O)COc5cccc6c5C(=O)N(C5CCC(=O)NC5=O)C6=O)CC4)cn3)nc2n(C2CCCC2)c1=O [BSJ-03-123]; experiment: increase in dead-cell fraction, 72 h; higher = more death;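 also: breast cancer cell lines in 384-well plates, stained with Hoechst plus LIVE/DEAD far red dye and imaged, cells above an LDR intensity threshold counted dead, Hoechst-negative corpses included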
[5] = compound: CC(=O)c1c(C)c2cnc(Nc3ccc(N4CCNCC4)cn3)nc2n(C2CCCC2)c1=O; experiment: as above
[6] = compound: CCN1CCN(Cc2ccc(Nc3ncc(F)c(-c4cc(F)c5nc(C)n(C(C)C)c5c4)n3)nc2)CC1; experiment: as above
Neratinib/HKI272 = compound: CCOc1cc2ncc(C#N)c(Nc3ccc(OCc4ccccn4)c(Cl)c3)c2cc1NC(=O)/C=C/CN(C)C [Neratinib/HKI272]; experiment: as above
[7] = compound: CCc1cnn2c(NCc3ccc[n+]([O-])c3)cc(N3CCCC[C@H]3CCO)nc12; experiment: as above
LEE011/Ribociclib = compound: CN(C)C(=O)c1cc2cnc(Nc3ccc(N4CCNCC4)cn3)nc2n1C1CCCC1 [LEE011/Ribociclib]; experiment: as above
THZ1 = compound: CN(C)C/C=C/C(=O)Nc1ccc(C(=O)Nc2cccc(Nc3ncc(Cl)c(-c4c[nH]c5ccccc45)n3)c2)cc1 [THZ1]; experiment: as above
Flavopiridol = compound: CN1CC[C@H](c2c(O)cc(O)c3c(=O)cc(-c4ccccc4Cl)oc23)[C@H](O)C1 [Flavopiridol]; experiment: as above
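For GR50, 72 h in this document: breast cancer and non-malignant breast epithelial cell lines, Deep Dye Drop or Dye Drop imaging, nine half-log doses, GR normalized to time-zero plates and DMSO-only controls.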

**Q.** How did the “GR50, 72 h” value [1] turn out when BT20 was run?
**A.** > 1 µM

**Q.** And the “GR50, 72 h” value (Ipatasertib/GDC0068)?
**A.** 0.645 µM

**Q.** What about the “GR50, 72 h” value [2] of the same cell line?
**A.** > 10 µM

**Q.** What about the “GR50, 72 h” value [3] of the same cell line?
**A.** 0.0613 µM

**Q.** And the “GR50, 72 h” value (BSJ-01-175)?
**A.** 0.0388 µM

**Q.** And the “GR50, 72 h” value (AZD2014)?
**A.** 0.146 µM

**Q.** And the “GR50, 72 h” value [4]?
**A.** 0.00274 µM

**Q.** What about the “GR50, 72 h” value (AZD6738) of the same cell line?
**A.** 5.85 µM

**Q.** What about the “GR50, 72 h” value (AZD7762) of the same cell line?
**A.** 1.1 µM

**Q.** What about the “GR50, 72 h” value (Vorinostat) of the same cell line?
**A.** 2.22 µM

**Q.** What about the “GR50, 72 h” value (Tivantinib/ARQ197) of the same cell line?
**A.** 0.473 µM

**Q.** What about the “increase in dead-cell fraction” value (BSJ-03-123; 0.001 µM) of the same cell line?
**A.** -0.0015

**Q.** What about the “increase in dead-cell fraction” value (BSJ-03-123; 0.003162 µM) of the same cell line?
**A.** 0.0071

**Q.** And the “increase in dead-cell fraction” value (BSJ-03-123; 0.01 µM)?
**A.** 0.0034

**Q.** What about the “increase in dead-cell fraction” value (BSJ-03-123; 0.03162 µM) of the same cell line?
**A.** 0.0088

**Q.** What about the “increase in dead-cell fraction” value (BSJ-03-123; 0.1 µM) of the same cell line?
**A.** 0.0041

**Q.** What about the “increase in dead-cell fraction” value (BSJ-03-123; 0.3162 µM) of the same cell line?
**A.** 0.0071

**Q.** And the “increase in dead-cell fraction” value (BSJ-03-123; 1 µM)?
**A.** 0.0076

**Q.** And the “increase in dead-cell fraction” value (BSJ-03-123; 3.162 µM)?
**A.** 0.008

**Q.** And the “increase in dead-cell fraction” value (BSJ-03-123; 10 µM)?
**A.** 0.0323

**Q.** And the “increase in dead-cell fraction” value ([5]; 0.0003162 µM)?
**A.** -0.0052

**Q.** What about the “increase in dead-cell fraction” value ([5]; 0.001 µM) of the same cell line?
**A.** -0.006

**Q.** And the “increase in dead-cell fraction” value ([5]; 0.003162 µM)?
**A.** 0.0023

**Q.** And the “increase in dead-cell fraction” value ([5]; 0.01 µM)?
**A.** 0.0093

**Q.** And the “increase in dead-cell fraction” value ([5]; 0.03162 µM)?
**A.** 0.0193

**Q.** What about the “increase in dead-cell fraction” value ([5]; 0.1 µM) of the same cell line?
**A.** 0.0353

**Q.** What about the “increase in dead-cell fraction” value ([5]; 0.3162 µM) of the same cell line?
**A.** 0.0479

**Q.** And the “increase in dead-cell fraction” value ([5]; 1 µM)?
**A.** 0.0439

**Q.** And the “increase in dead-cell fraction” value ([5]; 3.162 µM)?
**A.** 0.0468

**Q.** What about the “increase in dead-cell fraction” value ([6]; 0.001 µM) of the same cell line?
**A.** -0.0036

**Q.** And the “increase in dead-cell fraction” value ([6]; 0.003162 µM)?
**A.** -0.0047

**Q.** What about the “increase in dead-cell fraction” value ([6]; 0.01 µM) of the same cell line?
**A.** -0.0009

**Q.** What about the “increase in dead-cell fraction” value ([6]; 0.03162 µM) of the same cell line?
**A.** -0.0044

**Q.** And the “increase in dead-cell fraction” value ([6]; 0.1 µM)?
**A.** 0.0079

**Q.** What about the “increase in dead-cell fraction” value ([6]; 0.3162 µM) of the same cell line?
**A.** 0.0034

**Q.** And the “increase in dead-cell fraction” value ([6]; 1 µM)?
**A.** 0.0076

**Q.** What about the “increase in dead-cell fraction” value ([6]; 3.162 µM) of the same cell line?
**A.** 0.0117

**Q.** And the “increase in dead-cell fraction” value ([6]; 10 µM)?
**A.** 0.363

**Q.** And the “increase in dead-cell fraction” value (Neratinib/HKI272; 0.0003162 µM)?
**A.** -0.0021

**Q.** And the “increase in dead-cell fraction” value (Neratinib/HKI272; 0.001 µM)?
**A.** -0.0068

**Q.** And the “increase in dead-cell fraction” value (Neratinib/HKI272; 0.003162 µM)?
**A.** 0.001

**Q.** And the “increase in dead-cell fraction” value (Neratinib/HKI272; 0.01 µM)?
**A.** 0.004

**Q.** What about the “increase in dead-cell fraction” value (Neratinib/HKI272; 0.03162 µM) of the same cell line?
**A.** 0.0258

**Q.** What about the “increase in dead-cell fraction” value (Neratinib/HKI272; 0.1 µM) of the same cell line?
**A.** 0.0444

**Q.** What about the “increase in dead-cell fraction” value (Neratinib/HKI272; 0.3162 µM) of the same cell line?
**A.** 0.0552

**Q.** What about the “increase in dead-cell fraction” value (Neratinib/HKI272; 1 µM) of the same cell line?
**A.** 0.0626

**Q.** And the “increase in dead-cell fraction” value (Neratinib/HKI272; 3.162 µM)?
**A.** 0.169

**Q.** And the “increase in dead-cell fraction” value ([7]; 0.0001 µM)?
**A.** 0.0075

**Q.** What about the “increase in dead-cell fraction” value ([7]; 0.0003162 µM) of the same cell line?
**A.** -0.0076

**Q.** What about the “increase in dead-cell fraction” value ([7]; 0.001 µM) of the same cell line?
**A.** -0.0014

**Q.** And the “increase in dead-cell fraction” value ([7]; 0.003162 µM)?
**A.** -0.0106

**Q.** What about the “increase in dead-cell fraction” value ([7]; 0.01 µM) of the same cell line?
**A.** 0.0127

**Q.** What about the “increase in dead-cell fraction” value ([7]; 0.03162 µM) of the same cell line?
**A.** 0.456

**Q.** What about the “increase in dead-cell fraction” value ([7]; 0.1 µM) of the same cell line?
**A.** 0.789

**Q.** And the “increase in dead-cell fraction” value ([7]; 0.3162 µM)?
**A.** 0.803

**Q.** What about the “increase in dead-cell fraction” value ([7]; 1 µM) of the same cell line?
**A.** 0.827

**Q.** And the “increase in dead-cell fraction” value (LEE011/Ribociclib; 0.001 µM)?
**A.** 0.002

**Q.** What about the “increase in dead-cell fraction” value (LEE011/Ribociclib; 0.003162 µM) of the same cell line?
**A.** 0.0029

**Q.** What about the “increase in dead-cell fraction” value (LEE011/Ribociclib; 0.01 µM) of the same cell line?
**A.** 0.0024

**Q.** What about the “increase in dead-cell fraction” value (LEE011/Ribociclib; 0.03162 µM) of the same cell line?
**A.** 0.0037

**Q.** What about the “increase in dead-cell fraction” value (LEE011/Ribociclib; 0.1 µM) of the same cell line?
**A.** 0.0051

**Q.** What about the “increase in dead-cell fraction” value (LEE011/Ribociclib; 0.3162 µM) of the same cell line?
**A.** 0.0057

**Q.** And the “increase in dead-cell fraction” value (LEE011/Ribociclib; 1 µM)?
**A.** 0.0086

**Q.** And the “increase in dead-cell fraction” value (LEE011/Ribociclib; 3.162 µM)?
**A.** 0.0145

**Q.** And the “increase in dead-cell fraction” value (LEE011/Ribociclib; 10 µM)?
**A.** 0.0266

**Q.** And the “increase in dead-cell fraction” value (THZ1; 0.0001 µM)?
**A.** 0.0002

**Q.** And the “increase in dead-cell fraction” value (THZ1; 0.0003162 µM)?
**A.** 0.0003

**Q.** What about the “increase in dead-cell fraction” value (THZ1; 0.001 µM) of the same cell line?
**A.** -0.0025

**Q.** What about the “increase in dead-cell fraction” value (THZ1; 0.003162 µM) of the same cell line?
**A.** 0.0002

**Q.** And the “increase in dead-cell fraction” value (THZ1; 0.01 µM)?
**A.** -0.0011

**Q.** And the “increase in dead-cell fraction” value (THZ1; 0.03162 µM)?
**A.** -0.0033

**Q.** What about the “increase in dead-cell fraction” value (THZ1; 0.1 µM) of the same cell line?
**A.** -0.0037

**Q.** And the “increase in dead-cell fraction” value (THZ1; 0.3162 µM)?
**A.** -0.001

**Q.** What about the “increase in dead-cell fraction” value (THZ1; 1 µM) of the same cell line?
**A.** 0.212

**Q.** What about the “increase in dead-cell fraction” value (Flavopiridol; 0.0001 µM) of the same cell line?
**A.** 0.0067

**Q.** What about the “increase in dead-cell fraction” value (Flavopiridol; 0.0003162 µM) of the same cell line?
**A.** 0.0031

**Q.** What about the “increase in dead-cell fraction” value (Flavopiridol; 0.001 µM) of the same cell line?
**A.** -0.001

**Q.** What about the “increase in dead-cell fraction” value (Flavopiridol; 0.003162 µM) of the same cell line?
**A.** -0.0003

**Q.** And the “increase in dead-cell fraction” value (Flavopiridol; 0.01 µM)?
**A.** 0.0003

**Q.** And the “increase in dead-cell fraction” value (Flavopiridol; 0.03162 µM)?
**A.** 0.0115

**Q.** And the “increase in dead-cell fraction” value (Flavopiridol; 0.1 µM)?
**A.** 0.0027

**Q.** And the “increase in dead-cell fraction” value (Flavopiridol; 0.3162 µM)?
**A.** 0.0458

**Q.** What about the “increase in dead-cell fraction” value (Flavopiridol; 1 µM) of the same cell line?
**A.** 0.637
